Columns and labels:
post-infectious IBS = details: recent study, Dunlap et al. 2003; cited from earlier work
[1] = system: HCl-ethanol gastric damage; details: cited from earlier work
[2] = system: functional dyspepsia or irritable bowel syndrome; experiment: Veterinary case report: cat diagnosed with functional dyspepsia or irritable bowel syndrome given zinc-carnosine; format: in vivo; details: 15 mg BID
Text: A five year old, eight pound Siamese cat presented to vet with severe diarrhea, severe visible discomfort, inappetence and losing weight. […] Blood tests indicated no abnormalities and a stool samples indicated the cat was parasite free. The diagnosis of functional dyspepsia or irritable bowel syndrome made.

gastric ulcer = details: clinical trials, versus placebo; cited from earlier work
[3] = system: human umbilical vein endothelial cells; details: cited from earlier work
[4] = system: human foreskin fibroblast cells; details: cited from earlier work
TNBS model of colitis = details: cited from earlier work
water immersion stress = details: cited from earlier work
[5] = system: human MCT3-E1 cells (osteoblasts); details: cited from earlier work
[6] = based on current evidence; cited from earlier work
[7] = system: functional dyspepsia or irritable bowel syndrome; experiment: Veterinary case reports: dogs diagnosed with functional dyspepsia or irritable bowel syndrome given zinc-carnosine; format: in vivo; details: dog, 30 mg/day
Text: Ellie, a three year old, sixteen pound West Highland Terrier presented to vet with visible discomfort, loose stools and intermittent diarrhea. […] The diagnosis of functional dyspepsia or irritable bowel syndrome made.
Katelyn, a six year old, fourteen pound Boston Terrier presented to vet with visible discomfort, diarrhea, vomiting and inappetence. […] Blood tests indicated no abnormalities and a stool samples indicated the dog was parasite free. The diagnosis of functional dyspepsia or irritable bowel syndrome made.

Molecule | efficacy for treating post-infectious IBS (post-infectious IBS) | effect in animal model of gut ulceration and gross inflammation [1] | symptoms at check up ([2]; four week check up) | improvement of conditions (diarrhea, discomfort, inappetence, weight loss) ([2]; within seven days) | effect in treatment of gastric ulcer (gastric ulcer) | stimulation of growth (proliferation) [3] | stimulation of growth (proliferation) [4] | effect in animal model of gut ulceration and gross inflammation (TNBS model of colitis) | effect in animal model of gut ulceration and gross inflammation (water immersion stress) | stimulation of growth (proliferation) [5] | side effects [6] | improvement of conditions (discomfort, diarrhea, vomiting, inappetence) ([7]; course during treatment) | symptoms at check up ([7]; four week check up) | improvement of condition (discomfort, loose stools, diarrhea) ([7]; two week and four week follow-up visits)
C[C@]12C=CC(=O)C=C1CC[C@@H]1[C@@H]2[C@@H](O)C[C@@]2(C)[C@H]1CC[C@]2(O)C(=O)CO [predinisolone] | ineffective | – | – | – | – | – | – | – | – | – | – | – | – | –
Zinc-Carnosine | – | beneficial effects | No further symptoms | conditions improved significantly | beneficial effect above placebo | able to stimulate growth (proliferation) | able to stimulate growth (proliferation) | beneficial effects | beneficial effects | able to stimulate growth (proliferation) | little or no side effects | conditions improved on a daily basis | No further symptoms | significant improvement

Reference: patent publication US20100040711A1, “ZINC-CARNOSINE -BASED TREATMENT FOR NON ULCER (FUNCTIONAL ) DYSPEPSIA & IRRITABLE BOWEL SYNDROME IN HUMANS AND OTHER ANIMALS” (priority 2008, published 2010)
